13 compounds from patent US20100010057A1, “THIAZOLE DERIVATIVES AS INHIBITORS OF P13 KINASE” (CHROMA THERAPEUTICS LTD., priority 2006, published 2010) can be followed below.

One test addresses PI3Kγ (human) (Homo sapiens, UniProt P48736). Put plainly: Inhibition of PI3 kinase γ activity (HTRF). In kind it is biochemical. To be noted: ATP at or close to Km, IC50 range, read-out: Inhibitor activity versus PI3 Kinase γ. On the procedure:
(B) Inhibition of PI3 Kinase V Activity
In a final reaction volume of 20 μl, PI3Kγ (human) is incubated in assay buffer containing 10 μM phosphatidylinositol-4,5-bisphosphate and MgATP (concentration as required). The reaction is initiated by the addition of the MgATP mix. After incubation for 30 minutes at room temperature, the reaction is stopped by the addition of 5 μl of stop solution containing EDTA and biotinylated phosphatidylinositol-3,4,5-trisphosphate. Finally, 5 μl of detection buffer is added, which contains europium-labelled anti-GST monoclonal antibody, GST-tagged GRP1 PH domain and streptavidin-allophycocyanin. The plate is then read in time-resolved fluorescence mode and the homogenous time-resolved fluorescence (HTRF) signal is determined according to the formula HTRF=10000×(Em665 nm/Em620 nm).
Duplicate data points are generated from a ⅓ log dilution series of a stock solution of compound in DMSO. Nine dilutions steps are made from a top concentration of 10 μM, and a ‘no compound’ blank is included. The HTRF PI 3-Kinase assay is performed at an ATP concentration at, or close to, the Km. HTRF ratio data is transformed into % activity of controls and analysed with a four parameter sigmoidal dose-response (variable slope) application. QC criteria is based on Top, Bottom, Hill slope, r^2 and IC50, the concentration giving 50% inhibition, which is reported.
(§1) For each of the assays (B), (C) and (D) above, IC50 values are allocated to one of three ranges as follows: […]
A general note: TR-FRET usually uses a lanthanide donor and a delayed reading to cut background.

The test system of the next test is THP-1 cells. Briefly: LPS-stimulation of THP-1 cells, TNF-α release. The test is classed as cell-based. To be noted: Homo sapiens, LPS 1 μg/ml, 6 h, TNF-α by ELISA, IC50 range, read-out: Inhibitor activity versus THP-1 TNFα release. How it is done:
(C) LPS-Stimulation of THP-1 Cells
THP-1 cells are plated in 100 μl at a density of 4×10^4 cells/well in V-bottomed 96 well tissue culture treated plates and incubated at 37° C. in 5% CO2 for 16 h. 2 h after the addition of the inhibitor in 100 μl of tissue culture media, the cells are stimulated with LPS (E. coli strain 005:B5, Sigma) at a final concentration of 1 μg/ml and incubated at 37° C. in 5% CO2 for 6 h. TNF-α levels are measured from cell-free supernatants by sandwich ELISA (R&D Systems #QTA00B)
as §1

A further test concerns human whole blood. Put plainly: LPS-stimulation of human whole blood, TNF-α release. The test is classed as cell-based. To be noted: LPS 100 ng/ml, 6 h, TNF-α by ELISA, IC50 range, read-out: Inhibitor activity versus human whole blood TNFα release. How it is done: (D) LPS-Stimulation of Human Whole Blood
Whole blood is taken by venous puncture using heparinised vacutainers (Becton Dickinson) and diluted in an equal volume of RPMI1640 tissue culture media (Sigma). 100 μl is plated in V-bottomed 96 well tissue culture treated plates. 2 h after the addition of the inhibitor in 100 μl of RPMI1640 media, the blood is stimulated with LPS (E. coli strain 005:B5, Sigma) at a final concentration of 100 ng/ml and incubated at 37° C. in 5% CO2 for 6 h. TNF-α levels are measured from cell-free supernatants by sandwich ELISA (R&D Systems #QTA00B)
as §1
On the technique in general: In an ELISA, binding on a coated surface is turned into a signal by an enzyme label.

Sequence of PI3Kγ (human) (P48736 whole entry): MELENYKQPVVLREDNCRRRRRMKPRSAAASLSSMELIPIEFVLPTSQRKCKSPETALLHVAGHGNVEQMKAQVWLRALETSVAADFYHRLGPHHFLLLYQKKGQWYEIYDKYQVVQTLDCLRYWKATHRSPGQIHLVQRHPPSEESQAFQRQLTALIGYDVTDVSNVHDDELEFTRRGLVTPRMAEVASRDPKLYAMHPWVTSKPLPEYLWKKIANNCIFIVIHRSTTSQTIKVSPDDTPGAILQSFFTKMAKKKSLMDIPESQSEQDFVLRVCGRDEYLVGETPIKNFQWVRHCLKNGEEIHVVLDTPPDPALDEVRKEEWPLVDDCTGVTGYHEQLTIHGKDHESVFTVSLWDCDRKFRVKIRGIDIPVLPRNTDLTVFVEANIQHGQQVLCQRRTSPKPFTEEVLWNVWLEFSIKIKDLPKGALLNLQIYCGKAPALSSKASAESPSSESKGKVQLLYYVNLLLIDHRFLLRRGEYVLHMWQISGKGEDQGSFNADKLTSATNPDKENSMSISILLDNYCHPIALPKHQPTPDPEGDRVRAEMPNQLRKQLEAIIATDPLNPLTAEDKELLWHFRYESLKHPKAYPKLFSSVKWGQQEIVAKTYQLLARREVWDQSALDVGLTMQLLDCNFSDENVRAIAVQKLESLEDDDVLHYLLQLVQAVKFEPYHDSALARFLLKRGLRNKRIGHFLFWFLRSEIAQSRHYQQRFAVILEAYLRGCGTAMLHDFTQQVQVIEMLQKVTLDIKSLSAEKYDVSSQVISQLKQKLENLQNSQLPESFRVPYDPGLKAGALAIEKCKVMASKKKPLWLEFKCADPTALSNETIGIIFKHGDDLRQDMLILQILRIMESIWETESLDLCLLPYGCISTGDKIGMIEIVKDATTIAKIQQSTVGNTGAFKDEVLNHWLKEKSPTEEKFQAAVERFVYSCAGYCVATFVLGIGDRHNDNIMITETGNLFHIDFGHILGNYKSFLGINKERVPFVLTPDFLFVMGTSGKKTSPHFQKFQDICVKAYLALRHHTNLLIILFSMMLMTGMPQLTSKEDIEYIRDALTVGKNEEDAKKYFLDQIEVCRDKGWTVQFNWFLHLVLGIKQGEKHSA

On to `Cc1nc(NC(=O)CCCN[C@@H](CC(C)C)C(=O)OC2CCCC2)sc1-c1ccc(Cl)c(S(C)(=O)=O)c1` [Example 6, Cyclopentyl N-[4-({5-[4-chloro-3-(methylsulfonyl)phenyl]-4-methyl-1,3-thiazol-2-yl}amino)-4-oxobutyl]-L-leucinate], for which the IC50 on PI3Kγ (human) was 100 to 1000 nM; in the test on THP-1 cells it was 100 to 1000 nM; with human whole blood, over 1000 nM.

As for `Cc1nc(NC(=O)CCN[C@@H](C)C(=O)OC2CCCC2)sc1-c1ccc(Cl)c(S(C)(=O)=O)c1` [Example 16, Cyclopentyl N-[3-({5-[4-chloro-3-(methylsulfonyl)phenyl]-4-methyl-1,3-thiazol-2-yl}amino)-3-oxopropyl]-L-alaninate], the IC50 on PI3Kγ (human) was over 1000 nM; with THP-1 cells, 100 to 1000 nM.

In the case of `Cc1nc(NC(=O)N[C@@H](CO)C(=O)OC2CCCC2)sc1-c1ccc(Cl)c(S(C)(=O)=O)c1` [Example 23, Cyclopentyl N-({5-[4-chloro-3-(methylsulfonyl)phenyl]-4-methyl-1,3-thiazol-2-yl}carbamoyl)-L-serinate], the IC50 at PI3Kγ (human) and with THP-1 cells was over 1000 nM in each case.

Turning to `Cc1nc(NC(=O)CCCN[C@@H](CC(C)C)C(=O)OC(C)(C)C)sc1-c1ccc(Cl)c(S(C)(=O)=O)c1` [Example 14, tert-Butyl N-[4-({5-[4-chloro-3-(methylsulfonyl)phenyl]-4-methyl-1,3-thiazol-2-yl}amino)-4-oxobutyl]-L-leucinate], the IC50 at PI3Kγ (human) and in the test on THP-1 cells was over 1000 nM each time.

`CC(=O)Nc1nc(C)c(-c2ccc(Cl)c(S(=O)(=O)N[C@@H](COC(C)(C)C)C(=O)OC3CCCC3)c2)s1` [Example 21, Cyclopentyl N-{[5-(2-acetamido-4-methyl-3-thiazol-5-yl)-2-chlorophenyl]sulfonyl}-O-tert-butyl-L-serinate]: the IC50 on PI3Kγ (human) was 100 to 1000 nM; with THP-1 cells, over 1000 nM.

`CC(=O)Nc1nc(C)c(-c2ccc(Cl)c(S(=O)(=O)N[C@@H](CO)C(=O)OC3CCCC3)c2)s1` [Example 25, Cyclopentyl N-{[5-(2-acetamido-4-methyl-1,3-thiazol-5-yl)-2-chlorophenyl]sulfonyl}-L-serinate]: the IC50 at PI3Kγ (human) was 100 to 1000 nM; in the test on THP-1 cells, over 1000 nM.

`Cc1nc(NCC2CCC(N[C@@H](CC(C)C)C(=O)OC(C)(C)C)CC2)sc1-c1ccc(Cl)c(S(C)(=O)=O)c1` (stereo partly drawn) [Example 19, tert-Butyl N-{4-[({5-[4-chloro-3-(methylsulfonyl)phenyl]-4-methyl-1,3-thiazol-2-yl}amino)methyl]cyclohexyl}-L-leucinate]: the IC50 at PI3Kγ (human) and with THP-1 cells was over 1000 nM in each case.

For `Cc1nc(NC(=O)CCCN[C@@H](COC(C)(C)C)C(=O)OC(C)(C)C)sc1-c1ccc(Cl)c(S(C)(=O)=O)c1` [Example 15, tert-Butyl O-tert-butyl-N-[4-({5-[4-chloro-3-(methylsulfonyl)phenyl]-4-methyl-1,3-thiazol-2-yl}amino)-4-oxobutyl]-L-serinate], the IC50 at PI3Kγ (human) and with THP-1 cells was over 1000 nM each time.

For `Cc1nc(NC(=O)CCCN[C@@H](CO)C(=O)OC2CCCC2)sc1-c1ccc(Cl)c(S(C)(=O)=O)c1` [Example 24, Cyclopentyl N-[4-({5-[4-chloro-3-(methylsulfonyl)phenyl]-4-methyl-1,3-thiazol-2-yl}amino)-4-oxobutyl]-L-serinate], the values for the IC50 at PI3Kγ (human), with THP-1 cells and with human whole blood were over 1000 nM, under 100 nM and 100 to 1000 nM, respectively.

Consider `Cc1nc(NC(=O)CCCN[C@@H](C)C(=O)OC2CCCC2)sc1-c1ccc(Cl)c(S(C)(=O)=O)c1` [Example 7, Cyclopentyl N-[4-({5-[4-chloro-3-(methylsulfonyl)phenyl]-4-methyl-1,3-thiazol-2-yl}amino)-4-oxobutyl]-L-alaninate], for which the values for the IC50 at PI3Kγ (human), in the test on THP-1 cells and in the test on human whole blood were over 1000 nM, 100 to 1000 nM and 100 to 1000 nM, respectively.

Consider `Cc1nc(NC(=O)CCCN[C@H](C(=O)OC2CCCC2)c2ccccc2)sc1-c1ccc(Cl)c(S(C)(=O)=O)c1` [Example 10, Cyclopentyl (2S)-{[4-({5-[4-chloro-3-(methylsulfonyl)phenyl]-4-methyl-1,3-thiazol-2-yl}amino)-4-oxobutyl]amino}(phenyl)acetate], for which the IC50 on PI3Kγ (human) is 100 to 1000 nM; in the test with THP-1 cells, over 1000 nM.

For the compound `Cc1nc(NC(=O)CCCN[C@H](C(=O)OC2CCCC2)C2CCCCC2)sc1-c1ccc(Cl)c(S(C)(=O)=O)c1` [Example 13, Cyclopentyl (2S)-{[4-({5-[4-chloro-3-(methylsulfonyl)phenyl]-4-methyl-1,3-thiazol-2-yl}amino)-4-oxobutyl]amino}(cyclohexyl)acetate], the IC50 on PI3Kγ (human) and in the test with THP-1 cells was over 1000 nM each time.

On to `Cc1nc(NC(=O)CCCN[C@@H](COP(=O)(O)O)C(=O)OC2CCCC2)sc1-c1ccc(Cl)c(S(C)(=O)=O)c1` [Example 26, Cyclopentyl N-[4-({5-[4-chloro-3-(methylsulfonyl)phenyl]-4-methyl-1,3-thiazol-2-yl}amino)-4-oxobutyl]-O-phosphono-L-serinate], for which the IC50 on PI3Kγ (human) was under 100 nM; in the test on THP-1 cells, over 1000 nM.
